Experimental data reported in EPA's ToxValDB 9.5 (doi:10.2903/j.efsa.2016.4498).
In brackets after ≈: the same amount, converted by molar mass.

Legend:
Oryctolagus sp. = conditions: chronic
Elodea callitrichoides = conditions: chronic/long-term; duration: 42 days
Rattus norvegicus = conditions: acute; oral; mortality
Tagia sp. = conditions: chronic/long-term; growth
Daphnia magna = conditions: chronic/long-term; duration: 21 days; mortality
Hypoaspis aculeifer = conditions: chronic/long-term; mortality
Pimephales promelas = conditions: mortality
Apis mellifera = conditions: acute, mortality

With CNC1=C(c2cccc(C(F)(F)F)c2)C(=O)C(c2ccccc2)O1 (configuration not stated) [Flurtamone] the NOAEL (Oryctolagus sp.) was 20 mg/kg-day, the NOEC (Elodea callitrichoides) was 0.001 mg/L and the LD50 (Colinus virginianus; acute, oral, mortality) was over 2530 mg/kg. The NOEC (Colinus virginianus; chronic) was 7.3 mg/kg-day, the LD50 (Rattus norvegicus) was over 5000 mg/kg and the NOEC (Tagia sp.) was 47.5 mg/kg. For the same compound, the NOEC (Daphnia magna) was 0.071 mg/L, the NOEC (Hypoaspis aculeifer) was 89 mg/kg and the LC50 (Pimephales promelas; acute, duration: 96 hours) was 6.64 µg/mL (≈ 19.9 µM). It also gave an NOEC (Pimephales promelas; chronic/long-term, duration: 35 days) of 0.188 mg/L, an LD50 (Apis mellifera; dermal) of over 100 µg/piece and an LD50 (Apis mellifera; oral, unspecified) of over 105 µg/piece.
